Results from patent US8740872B2, “Magnetically-targeted treatment for cardiac disorders” (The Board of Regents of the University of Oklahoma, priority 2010, dated 2014).

Experiments:
[1] = dog, in vivo
Method: In 6 other animals, 1.6 mg of NIPA-M (twice the amount of NIPA-M incorporated into one trans-coronary delivery) was directly injected into the left ventricle. NIPA-M used in these experiments was not incorporated into the hydrogel in order to simulate the greatest possible toxic challenge should the total NIPA-M dose be released instantly into the circulation from trans-coronary infusion. Serum samples before and 9.7±0.3 hours after NIPA-M injection were collected for paired analysis to assess renal and hepatic toxicity.

[2] = in vivo; cited from earlier work
neurons = conditions: cited from earlier work
[3] = system: neurotransmitter release at the synapse; conditions: cited from earlier work

Compound	BUN/creatine ratio [1]	alanine aminotransferase (ALT) [1] [U/L]	blood urea nitrogen (BUN) [1] [mmol/L]	serum creatinine [1] [mmol/L]	neuropathy following prolonged oral exposure [2]	LD50% to kill 50% neurons (neurons) [mM]	duration of inhibition of neurotransmitter release at the synapse [3]
C=CC(=O)NC(C)C [NIPA-M, N-isopropyl acrylamide monomer]	17.6±1.7	41.3±8.7	16.2 ± 2.9	0.9 ± 0.1	induce clinical (ataxia, rotorod performance deficits) and morphological (tibial nerve degeneration) signs of neuropathy	5 to 8	–
botulinum toxin-A [BtA]	–	–	–	–	–	–	3-6 months
